Measurements published in patent publication US6995188B2 (priority 2002, dated 2006).
Read-outs that look alike come from different tables or passages of the source.

Experiments:
in vivo = conditions: Swiss Webster, mouse
[1] = system: mitochondrial membrane potential; format: cell-based, human
[2] = system: P388 lymphocytic leukemia cells; conditions: mouse, in vivo, ip, 100 mg/kg; cited from earlier work
physchem = conditions: water
[3] = Swiss Webster, mouse, in vivo; for Dead/Total Number / Dead/Total Number for IP Administration: ip
[4] = pH 5
[5] = system: blood mononuclear cells from leukemia patients; format: cell-based, human
NB4 cells = format: cell-based, human
[6] = system: human leukemia cell lines; format: cell-based
HL-60 cells = format: cell-based, human
[7] = system: caspase 3 and caspase 3-like activities; format: cell-based, human
U937/PR9 cells = format: cell-based, human
[8] = system: panel of 60 tumor cell lines; format: cell-based, human

C[As](C)SC[C@H](NC(=O)CC[C@H](N)C(=O)O)C(=O)NCC(=O)O [SGLU1, S-(dimethylarsino) glutathione]
LD50 (in vivo): 350 mg/kg | MTD (in vivo; iv): 350 mg/kg | change of the potential of mitochondrial membrane (CMXRos staining) [1]: involves change of the potential of mitochondrial membrane | % T/C [2]: 164% | solubility (physchem): ~60 mg/mL | tolerance (mortality) [3]: tolerated the 178 mg/kg and the 285 mg/kg doses of SGLU1 well | Dead/Total Number ([3]; 178 mg/kg): 0/5 | Dead/Total Number ([3]; 285 mg/kg): 1/5 | Dead/Total Number for IP Administration ([3]; 318 mg/kg): 0/5 | Dead/Total Number ([3]; 357 mg/kg): 5/5 | Dead/Total Number for IP Administration ([3]; 375 mg/kg): 4/5 | Dead/Total Number for IV Administration ([3]; 318 mg/kg): 1/5 | Dead/Total Number for IV Administration ([3]; 375 mg/kg): 5/5 | loss [4]: Less than 10% | activity against blood cells from patients with leukemia [5]: significant activity against blood tumor cells from patients with leukemia | induction of maturation (CD11b expression) (NB4 cells): do not induce maturation | anti-cancer activity against a panel of human leukemia cell lines [6]: significant anti-cancer activity | effect on cell cycle (HL-60 cells): marked accumulation of cells in S-phase of cell cycle | activation of caspases (PhiPhiLux staining) [7]: activation of caspases | toxicity to normal cells, long-term clonogenic assay (normal donor cells): less toxic then arsenic trioxide to normal cells | influence of functional PML/RARalpha gene on sensitivity (U937/PR9 cells): no influence on the sensitivity of the cells | anticancer activity, NIH panel [8]: showed evidence of activity at low concentrations against a variety of tumor cell lines
